Experimental data published in publication PMC12380353, “MK-8527 is a novel inhibitor of HIV-1 reverse transcriptase translocation with potential for extended-duration dosing” (PLOS Biology, 2025).
Like-named read-outs stand apart in the source and are kept apart here.

Key:
HIV-1IIIB = test: Cytoprotection assay in CEM-SS cells, HIV-1; assay type: cell-based; conditions: Human immunodeficiency virus 1, 144 h, 6 days, read-out: Antiviral potency as IC50, HIV-1 – CEM-SS cells
Experimental: The antiviral activity of MK-8527 against HIV-1 and HIV-2 was determined in a cytoprotection assay in CEM-SS cells at ImQuest BioSciences (Fredrick, MD, USA). Briefly, CEM-SS cells (National Institute of Health AIDS Research and Reference Reagent Program) were passaged in RPMI 1640 supplemented with 10% heat-inactivated FBS, 2 mM L-glutamine, 100 U/mL penicillin and 100 µg/mL streptomycin prior to use in the antiviral assay. On the day preceding the assay, the cells were split 1:2 to ensure they were in an exponential growth phase at the time of infection. The cells were resuspended at 2.5 × 10^3 cells per well in cell culture medium and added to the drug-containing microtiter plates at 50 µL per well. MK-8527 was tested in triplicate for each experiment, with 12 test concentrations added at 100 µL per well.
Lymphocyte-tropic virus strains HIV-1IIIB or HIV-2ROD (NIH AIDS Research and Reference Reagent Program) were diluted into tissue culture medium such that the amount of virus added to each well in a volume of […] corresponded to the amount determined to yield 85% to 95% cell killing in the untreated virus control wells at 6–7 days. Virus was added immediately after cells were added to the 96-well microtiter plates.
The IC50 for MK-8527 antiviral activity was determined using 4-parameter curve fit calculations.

HIV-1 = test: microbe, parasite or virus in culture
Experimental: IC50 values were determined, and a persistence ratio was calculated for each compound.
Assay media in each well were then evacuated and the cells resuspended using the gentle setting on the BlueWasher (BlueCatBio; Lebanon, NH, USA). Centrifugation and wash steps were repeated to ensure removal of extracellular compound.
MT4-GFP cells were infected with WT R8 virus, and PBMCs were infected with pNLG1-P2A-GFP. […] IC50 values were determined by nonlinear 4-parameter curve fitting of the data. A persistence ratio was calculated for each compound by dividing the IC50 from variable B (IC50B) by the IC50 from variable A (IC50A).

[1] = CellTiter-Glo (CTG) cytotoxicity in MT4-GFP cells; conditions: human
HIV RT = target: T1, HIV RT (Human immunodeficiency virus type 1 group M subtype B, UniProt P04585); test: Iron footprinting assay of RT translocation state; assay type: biochemical
T1 construct: HIV RT (final concentration, 1,200 nM)
Experimental: The translocation state of RT was assessed with a site-specific iron footprinting assay adapted from previous work. Primer and template used for this assay are described in Fig 7A. The presence of Fe^2+ ions in the reaction generated hydroxyl radicals that cleaved the DNA template in a site-specific manner at the nucleotide closest to the RNase H active site. In addition to an RT inhibitor in the reaction, dTTP, the subsequent dNTP, was provided in dose titration to force the translocation of the 3′-primer terminus from the pre-translocation N-site to the post-translocation P-site.
(final concentration, 1 µM), or ddATP (final concentration, 5 µM), Td43/Pd30 pre-annealed primer and template (final concentration, 200 nM based on Cy3-labeled Td43 concentration), and dTTP titrated at various concentrations. All reagent stocks were in a base assay buffer consisting of 120 mM Tris pH 7.5, 20 mM NaCl, and 6 mM MgCl2 in nuclease-free water. […] The reaction was then heated to 37 °C for 5 min before quenching 1:1 with gel-loading dye followed by heating at 95 °C for 10 min. Samples were stored at −20 °C until being resolved by polyacrylamide gel electrophoresis with 7 M urea.

Structure (SMILES): C#C[C@]1(CO)O[C@@H](n2ccc3c(N)nc(Cl)nc32)C[C@@H]1O [Compound 12, (2R,3S,5R)-5-(4-amino-2-chloro-7H-pyrrolo[2,3-d]pyrimidin-7-yl)-2-ethynyl-2-(hydroxymethyl)tetrahydrofuran-3-ol]
- IC50 (HIV-1IIIB): 0.14 nM
- IC50 (HIV-1; Human immunodeficiency virus 1, 48 h, read-out: Persistence assay IC50B, MT4-GFP cells): 223 ± 104 nM
- IC50 (HIV-1; Human immunodeficiency virus 1, read-out: Persistence assay IC50A, MT4-GFP cells): 7.2 ± 2.3 nM
- CC50 [1]: > 42 µM

Structure (SMILES): C#C[C@]1(COP(=O)(O)OP(=O)(O)OP(=O)(O)O)O[C@@H](n2ccc3c(N)nc(Cl)nc32)C[C@@H]1O [MK-8527-TP]
- Translocation state of RT (HIV RT; 1 µM MK-8527-TP or ISL-TP, 5 µM ddATP, absence or presence of dTTP): remained in a pre-translocation (−18) state
- dTTP concentration above which post-translocation state products (−17) began accumulating (HIV RT; 1 µM inhibitor): > 6.2 µM
